#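 Grown in 96-well plates, cells were treated for 48 hours with each compound at five concentrations. Insufficient inhibition: endpoint recorded as highest concentration tested. TGI marks complete inhibition of growth.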
# Experiments:
# Assay in all cases: NCI-60 cell line screen, 48 h
# UACC-257 melanoma = tested on: UACC-257 melanoma
# MDA-MB-435 = tested on: MDA-MB-435
# EKVX NSCLC = tested on: EKVX NSCLC
# HOP-92 NSCLC = tested on: HOP-92 NSCLC
# LOX IMVI melanoma = tested on: LOX IMVI melanoma
# NCI-H226 lung = tested on: NCI-H226 lung
# SR leukemia = tested on: SR leukemia
# NCI-H522 lung = tested on: NCI-H522 lung
# T-47D breast = tested on: T-47D breast
# U251 CNS = tested on: U251 CNS
# SK-MEL-2 melanoma = tested on: SK-MEL-2 melanoma
# SK-MEL-28 melanoma = tested on: SK-MEL-28 melanoma
# UACC-62 melanoma = tested on: UACC-62 melanoma
# BT-549 breast = tested on: BT-549 breast
# OVCAR-8 ovarian = tested on: OVCAR-8 ovarian
# SK-MEL-5 melanoma = tested on: SK-MEL-5 melanoma
# SN12C renal = tested on: SN12C renal
# HT29 colon = tested on: HT29 colon
# 786-0 renal = tested on: 786-0 renal
# SF-295 CNS = tested on: SF-295 CNS
# HS 578T breast = tested on: HS 578T breast
# SK-OV-3 ovarian = tested on: SK-OV-3 ovarian
# NCI-H23 lung = tested on: NCI-H23 lung
# HOP-62 NSCLC = tested on: HOP-62 NSCLC
# K-562 leukemia = tested on: K-562 leukemia
# HCT-15 colon = tested on: HCT-15 colon
# NCI/ADR-RES ovarian = tested on: NCI/ADR-RES ovarian
# SF-268 CNS = tested on: SF-268 CNS
# CAKI-1 renal = tested on: CAKI-1 renal
# OVCAR-5 ovarian = tested on: OVCAR-5 ovarian
# SW-620 colon = tested on: SW-620 colon
# A549 NSCLC = tested on: A549 NSCLC
# OVCAR-3 ovarian = tested on: OVCAR-3 ovarian
# UO-31 renal = tested on: UO-31 renal
# PC-3 prostate = tested on: PC-3 prostate
# SNB-19 CNS = tested on: SNB-19 CNS
# COLO 205 colon = tested on: COLO 205 colon
# RXF 393 renal = tested on: RXF 393 renal
# M14 melanoma = tested on: M14 melanoma
# MALME-3M melanoma = tested on: MALME-3M melanoma
# MDA-MB-231 breast = tested on: MDA-MB-231 breast
# MOLT-4 leukemia = tested on: MOLT-4 leukemia
# DU-145 prostate = tested on: DU-145 prostate
# CCRF-CEM leukemia = tested on: CCRF-CEM leukemia
# HCC-2998 colon = tested on: HCC-2998 colon
# TK-10 renal = tested on: TK-10 renal
# SNB-75 CNS = tested on: SNB-75 CNS
# RPMI-8226 leukemia = tested on: RPMI-8226 leukemia
# HCT-116 colon = tested on: HCT-116 colon
# SF-539 CNS = tested on: SF-539 CNS
# MDA-N = tested on: MDA-N
# OVCAR-4 ovarian = tested on: OVCAR-4 ovarian
# A498 renal = tested on: A498 renal
# HL-60(TB) leukemia = tested on: HL-60(TB) leukemia
# MCF7 breast = tested on: MCF7 breast
# KM12 colon = tested on: KM12 colon
# ACHN renal = tested on: ACHN renal
# IGROV1 ovarian = tested on: IGROV1 ovarian
# NCI-H460 lung = tested on: NCI-H460 lung
smiles,measurement,setting,value
CC(C#N)(c1ccccc1)N(CCc1ccccc1)C(=O)Oc1ccccc1 (stereo unspecified),TGI,UACC-257 melanoma,> 100 µM
same,TGI,MDA-MB-435,> 100 µM
same,TGI,EKVX NSCLC,> 100 µM
same,TGI,HOP-92 NSCLC,65 µM
same,TGI,LOX IMVI melanoma,> 100 µM
same,TGI,NCI-H226 lung,> 100 µM
same,TGI,SR leukemia,> 100 µM
same,TGI,NCI-H522 lung,> 100 µM
same,TGI,T-47D breast,> 100 µM
same,TGI,U251 CNS,> 100 µM
same,TGI,SK-MEL-2 melanoma,> 100 µM
same,TGI,SK-MEL-28 melanoma,> 100 µM
same,TGI,UACC-62 melanoma,> 100 µM
same,TGI,BT-549 breast,> 100 µM
same,TGI,OVCAR-8 ovarian,> 100 µM
same,TGI,SK-MEL-5 melanoma,> 100 µM
same,TGI,SN12C renal,> 100 µM
same,TGI,HT29 colon,> 100 µM
same,TGI,786-0 renal,> 100 µM
same,TGI,SF-295 CNS,> 100 µM
same,TGI,HS 578T breast,> 100 µM
same,TGI,SK-OV-3 ovarian,> 100 µM
same,TGI,NCI-H23 lung,> 100 µM
same,TGI,HOP-62 NSCLC,> 100 µM
same,TGI,K-562 leukemia,> 100 µM
same,TGI,HCT-15 colon,> 100 µM
same,TGI,NCI/ADR-RES ovarian,> 100 µM
same,TGI,SF-268 CNS,> 100 µM
same,TGI,CAKI-1 renal,> 100 µM
same,TGI,OVCAR-5 ovarian,> 100 µM
same,TGI,SW-620 colon,> 100 µM
same,TGI,A549 NSCLC,> 100 µM
same,TGI,OVCAR-3 ovarian,> 100 µM
same,TGI,UO-31 renal,> 100 µM
same,TGI,PC-3 prostate,> 100 µM
same,TGI,SNB-19 CNS,> 100 µM
same,TGI,COLO 205 colon,> 100 µM
same,TGI,RXF 393 renal,> 100 µM
same,TGI,M14 melanoma,> 100 µM
same,TGI,MALME-3M melanoma,> 100 µM
same,TGI,MDA-MB-231 breast,> 100 µM
same,TGI,MOLT-4 leukemia,> 100 µM
same,TGI,DU-145 prostate,> 100 µM
same,TGI,CCRF-CEM leukemia,> 100 µM
same,TGI,HCC-2998 colon,> 100 µM
same,TGI,TK-10 renal,> 100 µM
same,TGI,SNB-75 CNS,81.6 µM
same,TGI,RPMI-8226 leukemia,> 100 µM
same,TGI,HCT-116 colon,> 100 µM
same,TGI,SF-539 CNS,> 100 µM
same,TGI,MDA-N,> 100 µM
same,TGI,OVCAR-4 ovarian,> 100 µM
same,TGI,A498 renal,> 100 µM
same,TGI,HL-60(TB) leukemia,> 100 µM
same,TGI,MCF7 breast,> 100 µM
same,TGI,KM12 colon,> 100 µM
same,TGI,ACHN renal,> 100 µM
same,TGI,IGROV1 ovarian,> 100 µM
Cc1ccc(N)c(S)c1,TGI,UACC-257 melanoma,54.7 µM
same,TGI,MDA-MB-435,36.1 µM
same,TGI,EKVX NSCLC,31.5 µM
same,TGI,HOP-92 NSCLC,30.2 µM
same,TGI,LOX IMVI melanoma,30 µM
same,TGI,NCI-H226 lung,49.1 µM
same,TGI,SR leukemia,45.8 µM
same,TGI,NCI-H522 lung,33.5 µM
same,TGI,T-47D breast,33.9 µM
same,TGI,U251 CNS,28.5 µM
same,TGI,SK-MEL-2 melanoma,31.5 µM
same,TGI,SK-MEL-28 melanoma,47.6 µM
same,TGI,UACC-62 melanoma,32.7 µM
same,TGI,BT-549 breast,36.4 µM
same,TGI,OVCAR-8 ovarian,30.8 µM
same,TGI,SK-MEL-5 melanoma,30.6 µM
same,TGI,SN12C renal,7.83 µM
same,TGI,HT29 colon,33.8 µM
same,TGI,786-0 renal,29.6 µM
same,TGI,NCI-H460 lung,49.9 µM
same,TGI,SF-295 CNS,43.4 µM
same,TGI,HS 578T breast,> 100 µM
same,TGI,SK-OV-3 ovarian,70.8 µM
same,TGI,NCI-H23 lung,36.3 µM
same,TGI,HOP-62 NSCLC,44.4 µM
same,TGI,K-562 leukemia,65.1 µM
same,TGI,HCT-15 colon,30.4 µM
same,TGI,NCI/ADR-RES ovarian,56.8 µM
same,TGI,SF-268 CNS,46.2 µM
same,TGI,CAKI-1 renal,85 µM
same,TGI,OVCAR-5 ovarian,42 µM
same,TGI,SW-620 colon,38.7 µM
same,TGI,A549 NSCLC,40.6 µM
same,TGI,OVCAR-3 ovarian,44 µM
same,TGI,UO-31 renal,26.7 µM
same,TGI,PC-3 prostate,28.6 µM
same,TGI,SNB-19 CNS,36.7 µM
same,TGI,COLO 205 colon,52.9 µM
same,TGI,RXF 393 renal,30.8 µM
same,TGI,M14 melanoma,30.8 µM
same,TGI,MALME-3M melanoma,82.6 µM
same,TGI,MDA-MB-231 breast,31.3 µM
same,TGI,MOLT-4 leukemia,47 µM
same,TGI,DU-145 prostate,29.1 µM
same,TGI,CCRF-CEM leukemia,> 100 µM
same,TGI,HCC-2998 colon,88.1 µM
same,TGI,TK-10 renal,43.1 µM
same,TGI,SNB-75 CNS,40.5 µM
same,TGI,HCT-116 colon,46.8 µM
same,TGI,SF-539 CNS,31.3 µM
same,TGI,MDA-N,28.2 µM
same,TGI,OVCAR-4 ovarian,43.5 µM
same,TGI,A498 renal,38.6 µM
same,TGI,HL-60(TB) leukemia,58.5 µM
same,TGI,MCF7 breast,38.8 µM
same,TGI,KM12 colon,36.7 µM
same,TGI,ACHN renal,37.9 µM
same,TGI,IGROV1 ovarian,31.5 µM

# Source: PubChem BioAssay (NCI)
